Test results taken from patent US20030134859A1 (SANKYO COMPANY, LIMITED, priority 2000, published 2003).

What was measured:
[1] = system: TNF-α production; experiment: Inhibitory activity against cytokine (TNF-α) production in LPS-stimulated RAW264.7 cells; type: cell-based, mouse; settings: Mus musculus, 1 μM test compound, LPS 10 ng/mL
Description: The mouse monocyte/macrophage cell line, RAW264.7 (ATCC TIB71) was purchased from Dainippon Pharmaceutical Co., Ltd. The RAW264.7 cells were cultured in a CO2 incubator (37° C., 95% of humidity, 5% of CO2) by using the Dulbecco's modified Eagle's medium (DMEM medium; GIBCO, Cat. No. 11995-040) containing bovine fetal serum (the final concentration: 10% (v/v), MOREGATE, lot No. 474030), penicillin G (the final concentration: 50 units/mL […], GIBCO) and streptomycin (the final concentration: 20 μg/mL, GIBCO).
Sixty (60) μL of the RAW264.7 cell suspension (83,000 cells/mL) were plated into each well of a 96-well microplate (5,000 cells/well). After the cells were cultured for 4 hr in a CO2 incubator, 40 μL of DMEM medium containing 25 ng/mL of LPS (Sigma-Aldrich Japan K. K.) were added into each well (final concentration of LPS: 10 ng/mL). The test compound dissolved in DMSO at a concentration of 1 mM was diluted with DMEM medium by 20 times. Then 2 μL/well of the diluted solution were added to wells containing the plated cells (final concentration of the test compound: 1 μM). As the control, 2 μL/well of DMSO diluted with DMEM medium by 20 times were added to wells containing the plated cells either with LPS (final concentration: 10 ng/mL) or without LPS. After these cells were cultured in a CO2 incubator for 15 hr, the supernatant of the medium was recovered. The amount of mTNF-α in the medium supernatant was determined with a mouse TNF-α ELISA kit Quantikine M (R&D System), according to the experiment protocol attached with the kit.
The inhibitory activity of the test compound against TNF-α production was calculated according to the following equation.
A: The amount of TNF-α in the presence of test compound
B: The amount of TNF-α in the control without LPS
C: The amount of TNF-α in the control with 10 ng/mL of LPS
Inhibitory Activity of the Test Compound against TNF-α Production (%)=100−(A−B)/(C−B)×100

[2] = system: Mouse preadipocyte strain 3T3-L1; experiment: Inhibition of differentiation as an indication of acetic acid uptake; type: cell-based; settings: Mus musculus, 0.1 μM test substance, control (0.01% dimethylsulfoxide) = 100%, read-out: Rate of Uptake (%) of [2-14C] acetic acid
Procedure, shortened: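 Differentiation is indexed by 1 hr [2-14C]acetic acid incorporation, measured by scintillation counting and given as uptake relative to 0.01% DMSO control (100%). Mouse 3T3-L1 preadipocytes, pre-grown 10 days, received 0.1 μM test substance throughout a 4-day insulin/IBMX/dexamethasone induction, followed by 2 days' maintenance culture.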

[3] = target: T1, human PPAR γ 2 (Homo sapiens, UniProt P37231); experiment: Inhibitory activity against PPAR γ transcription in the presence of agonist compound A, luciferase reporter; type: cell-based; settings: in the presence of 10 nM compound A (agonist); MG63 cells transfected with pSG5-hPPARg and pGV-P2-PPRE; 24 hr
T1 construct: expressed in transfected cells; host or cells: human osteosarcoma MG63, transiently co-transfected with pSG5-hPPARg and the reporter pGV-P2-PPRE
T1 sequence (P37231 1-505): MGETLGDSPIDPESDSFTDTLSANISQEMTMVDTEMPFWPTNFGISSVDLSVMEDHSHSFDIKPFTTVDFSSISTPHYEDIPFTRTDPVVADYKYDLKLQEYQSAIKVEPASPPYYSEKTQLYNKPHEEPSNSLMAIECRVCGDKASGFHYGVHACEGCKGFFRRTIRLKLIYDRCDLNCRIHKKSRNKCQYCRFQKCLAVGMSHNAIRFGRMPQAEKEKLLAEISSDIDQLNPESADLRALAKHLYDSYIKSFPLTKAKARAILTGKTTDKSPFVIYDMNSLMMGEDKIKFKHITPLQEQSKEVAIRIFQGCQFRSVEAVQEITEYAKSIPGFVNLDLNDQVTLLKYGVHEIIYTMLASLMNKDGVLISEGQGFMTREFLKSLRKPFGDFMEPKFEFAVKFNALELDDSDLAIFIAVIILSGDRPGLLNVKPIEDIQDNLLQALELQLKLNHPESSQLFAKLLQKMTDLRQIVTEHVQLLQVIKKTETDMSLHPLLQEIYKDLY
Text: The primers of the polymerase chain reaction (hereinafter “PCR”) were designed according to the gene sequence of human PPAR γ 2 (GenBANK accession No. D83233). […] For this, 2 kinds of polynucleotides shown in the sequence numbers 1 and 2 in the sequence table described below (hereinafter “S1” and “AS1”, respectively) were used as PCR primers.
In order to determine transcriptional activity via PPAR γ, 2 kinds of polynucleotides represented in sequence numbers 3 and 4 in the sequence table described below (hereinafter “S2” and “AS2”, respectively) were used for construction of the reporter plasmid having PPAR responsive element. The DNA fragment inserted was designed based on the gene sequence in the promoter region of rat acylCo-A oxidase (J. D. Tugwood, EMBO J., 11 (2), pp433-439 (1992)). For insertion of the DNA fragment into the reporter plasmid pGV-P2 (TOYO INK MFG CO., LTD), a NheI site and an XhoI site were added to the S2 and AS2, respectively.
Using cDNA library (Clontech) derived from human adipose tissue as a template, DNA oligomers S1 and AS1 that were synthesized in the procedure 1 as primers and Ex-Taq™ (TAKARA BIO INC.) as a thermostable DNA polymerase-PCR was carried out. […] Each cycle consisted of incubation at 94° C. for 1 min for denaturation of the template, then at 55° C. for 30 sec for annealing of DNA oligomers the PCR primer, and then at 72° C. for 30 sec for extension of the chain. The obtained DNA fragments with approximately 1500 base pairs were digested at the Bgl II sites and were inserted into BamHI sites of pSG5. Thus a human PPAR γ expression plasmid named pSG5-hPPAR g was obtained.
Vector pGV-P2 digestion products was prepared by digestion using the restriction enzymes, NheI and XhoI, and purified by 1.0% agarose-gel electrophoresis. The DNA oligomers, S2 and AS2 obtained in Procedure 2, were mixed together and were incubated in a hot bath at 94° C. for 1 min. After the annealing was partially broken, they were further incubated at 25° C. for 1 hr. Thus double-stranded DNA with annealing of S2 and AS2 was formed. Then, the terminus of the double-stranded DNA with annealing of S2 and AS2 was phosphorylated with DNA polynucleotide kinase (TOYOBO CO., LTD). After that, it was ligated to the pGV-P2 digestion products which were prepared previously using the NheI site and XhoI site. Thus the reporter plasmid pGV-P2-PPRE was obtained.
Using the plasmid obtained by the procedures 3 and 4, transformation of Escherichia coli HB-101 strain was carried out by conventional methods. HB-101 strain having the plasmid was incubated in L-broth medium (containing 10 g of trypton (Difco), 5 g of yeast extract (Difco), 5 g of sodium chloride in 1 L of aqueous solution) containing 100 μg/ml of ampicillin at 37° C. for 17 hrs. Then, each plasmid was purified by the alkaline-SDS method and employed for the gene transfection to mammalian cells. After mixing the pSG5-hPPARg, PGV-P2-PPRE and LipofectAMINE reagent (GIBCO BRL), the human osteosarcoma MG63 was transiently transfected. Then the cells were recovered. The recovered cells were plated on a 96-well plate so as to be 30,000 cells/well and cultured in a CO2 incubator (NAPCO) at 37° C. for 24 hr under the condition of 5% CO2, 95%-RH.
Ten (10) nM of the following compound A (although compound A is described here as a representative compound, the compound is not limited to compound A, if the compound exerts a PPAR r agonistic activity) and various concentrations of the test compound were added to culturing medium of the cells prepared in the Procedure 5.

[4] = system: Rat white adipocytes; experiment: Stimulation of differentiation of the adipocytes (Oil Red O); type: cell-based; settings: Rattus norvegicus, Adipocyte, 120 h, 100 nM test compound; 5 days; Oil Red O ABS550; control = 100%, blank = 0%; Table 7; read-out: Rate of Differentiation (%)
Description: Rat white adipocytes contained in the white adipocyte culture kit, which was purchased from HOKUDO, were used. Mediums for proliferation and for differentiation-inducing, which were contained in the white adipocyte culture kit purchased from HOKUDO, were used.
Immediately after arrival of the purchased cells, all medium for transportation was discarded and replaced with 5 ml of proliferation medium (/25 cm^2-flask) and the cells were cultured for one day. Then, a cell suspension was prepared with proliferation medium so as to be 83,000 cells/mL, and the suspension was plated into a type I 96-well collagen-coated microplate (SUMITOMO BAKELITE CO., ltd.) so as to be 5,000 cells/well (60 μL/well). For the blank, the proliferation medium without the cells was plated into the well (blank well) of each plate.
Further, 1) in the group treated with the test compound, 3 μL/well of a solution in which the test compound (100 μM) was dissolved in DMSO solution and diluted with differentiation-inducing medium by 20 times (final concentration of the test compound: 100 nM, final concentration of DMSO: 0.1% (v/v)) were added to the well where the cells were plated. 2) In the control group, 3 μL/well of DMSO solution that was diluted with differentiation-inducing medium by 20 times (final concentration of DMSO: 0.1% (v/v)) were added to the well where the cells were plated. Further, 3) in the blank group, 3 μL/well of DMSO solution that was diluted with differentiation-inducing medium by 20 times (final concentration: 0.1% (v/v)) were added to the blank well.
After culturing for 5 days, all differentiation-inducing medium was discarded and replaced with 60 μL of 10% (v/v) of formaldehyde solution (for fixation) in each well and the cells were kept stationary for 20 min at room temperature. After this the fixative solution was discarded and replaced with 60 μL of 0.2% (v/v) Triton X (Sigma-Aldrich Japan K. K.) solution in each well and kept stationary for 5 min at the room temperature. Then all Triton X solution was discarded and replaced with 60 μL of 60% (v/v) isopropanol solution containing dissolved Oil Red 0 (Sigma-Aldrich Japan K. K.) so as to be 0.3%, which was adipose tissue staining solution, and the well was left stationary for 10 min at room temperature. After the adipose tissue staining solution was discarded, the well was washed twice with 60 μL of 60% (v/v) isopropanol solution. Then, 100 μL of the DMSO were added to each well and stirred for 5 min at room temperature. The absorbance was measured at 550 nm (ABS550) with a multi-plate reader (LabsSystems), and the stained amount by Oil Red 0 was determined. The measured level at ABS550 in the control group was defined as 100%, while the level at ABS550 in the blank group was defined as 0%. The differentiation rate (%) of the adipocytes treated with the test compound was calculated.

[5] = system: Rat white adipocytes; experiment: Inhibition of the differentiation of adipocytes (Oil Red O); type: cell-based; settings: Rattus norvegicus, Adipocyte, 120 h, 100 nM test compound; 5 days; Oil Red O ABS550; control = 100%, blank = 0%; Table 3; read-out: Rate of Differentiation (%)
Procedure, shortened: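 Rat white preadipocytes, 5,000 cells/well, given differentiation medium with compound at 100 nM final (0.1% DMSO) for 5 days at 37 °C. Lipid stained with Oil Red O, eluted in DMSO, read at 550 nm; differentiation % relative to DMSO control (100%) and blank (0%).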

`O=C(Nc1nc(-c2cccc([N+](=O)[O-])c2)cs1)c1cc([N+](=O)[O-])ccc1Cl` [Example 61, N-[4-(3-Nitrophenyl)thiazol-2-yl]-(2-chloro-5-nitrophenyl)carboxamide] gave an inhibition at 1 µM ([1]; 15 hr) of 22.6% and an activity at 0.1 µM [2] of 74.8%.
With `O=C(Nc1ccc(C(=O)N2CCCC2)cc1)c1cc([N+](=O)[O-])ccc1Cl` [Example 160, N-[4-(Pyrrolidinylcarbonyl)phenyl]-(2-chloro-5-nitrophenyl)carboxamide] the IC50 [3] was 110 nM and the activity at 0.1 µM [4] was 128%.
`CN1CCN(C(=O)c2ccc(NC(=O)c3cc([N+](=O)[O-])ccc3Cl)cc2)CC1` [Example 164, N-[4-(4-Methylpiperazin-1-ylcarbonyl)phenyl]-(2-chloro-5-nitrophenyl)carboxamide] showed an IC50 [3] of 0.6 nM and an activity at 0.1 µM [4] of 125%.
In the case of `O=C(Nc1ccc(C(=O)N2CCN(c3ccccc3)CC2)cc1)c1cc([N+](=O)[O-])ccc1Cl` [Example 165, N-[4-(4-Phenylpiperazin-1-ylcarbonyl)phenyl]-(2-chloro-5-nitrophenyl)carboxamide], the inhibition at 1 µM ([1]; RAW264.7, 15 h) is reported as 15.7% and the activity at 0.1 µM [5] is reported as 85.8%.
With `CCCCCCN(CCCC)c1ccc(-c2ccc(NC(=O)c3cc([N+](=O)[O-])ccc3Cl)cc2)cc1` [Example 199, N-[4-[4-(N-Butyl-N-hexylamino)phenyl]phenyl]-(2-chloro-5-nitrophenyl)carboxamide] the inhibition at 1 µM ([1]; RAW264.7, 15 h) was 20.8% and the activity at 0.1 µM [5] was 35.8%.
Work on `CCCCCN(CCC)c1ccc(-c2ccc(NC(=O)c3cc([N+](=O)[O-])ccc3Cl)cc2)cc1` [Example 211, N-[4-[4-(N-Pentyl-N-propylamino)phenyl]phenyl]-(2-chloro-5-nitrophenyl)carboxamide] yielded an inhibition at 1 µM ([1]; RAW264.7, 15 h) of 27.6% and an activity at 0.1 µM [5] of 37.3%.
`Nc1ccc(-c2csc(NC(=O)c3cc([N+](=O)[O-])ccc3Cl)n2)cc1` [Example 241, N-[4-(4-Aminophenyl)thiazol-2-yl]-(2-chloro-5 nitrophenyl)carboxamide] gave an inhibition at 1 µM ([1]; RAW264.7, 15 h) of 28% and an activity at 0.1 µM [5] of 57.9%.
`CCOC(=O)NC(=O)Nc1ccc(-c2ccc(NC(=O)c3cc([N+](=O)[O-])ccc3Cl)cc2)cc1` [Example 244, N-[4-[4-(Ethoxycarbonylaminocarbonylamino)phenyl]phenyl]-(2-chloro-5-nitrophenyl)carboxamide] was tested, and the inhibition at 1 µM ([1]; RAW264.7, 15 h) was 26.5% and the activity at 0.1 µM [5] was 45%.
